Reference: patent US8299124B2, “Aqueous intraocular penetration-promoting eye drop” (Senju Pharmaceutical Co., Ltd., priority 2004, dated 2012)

Key:
[1] = pH 7.8
[2] = system: intraocular inflammation after anterior chamber puncture; test: Medicinal efficacy test in a model rabbit of anterior chamber puncture; type: in vivo, Male Dutch rabbits; details: after anterior chamber puncture in rabbits
Protocol: The concentration of said medicament in the anterior chamber can be measured by the HPLC method for the anterior aqueous humor collected through anterior chamber puncture, as shown in Experimental Example 1 (Penetration Test of a Medicament in the Aqueous Humor) described below. Male Dutch rabbits (Biotech Co., Ltd) with a body weight of about 2 kg was bred and acclimatized under the condition that the temperature was 23±2° C. and the humidity was 55±10%. On the day of the test, the flare value of anterior chamber in the rabbits was determined by a laser flare cell meter (FC-1000, Kowa Company, Ltd.). […] The eye drops of Formulations 4 to 6 in Table 4 were prepared and used. At 30 minutes before the puncture of the anterior chamber, 1,000 U/kg of heparin (Heparin sodium injection, Ajinomoto Co., Inc.) was administered into the rabbit's ear vein. […] The flare value (photon count/msec) in the anterior chamber was determined 30 minutes after the puncture of anterior chamber using a laser flare cell meter (FC-1000, Kowa Company, Ltd.). […] An inhibition rate of inflammation after the puncture of anterior chamber was calculated according to the following equation. […]

Compound: Nc1c(CC(=O)[O-])cccc1C(=O)c1ccc(Br)cc1.Nc1c(CC(=O)[O-])cccc1C(=O)c1ccc(Br)cc1.O.O.O.[Na+].[Na+] [Control, Sodium 2-amino-3-(4-bromobenzoyl)phenylacetate 3/2 hydrate, reference compound]
- Octanol-water partition coefficient of 2-amino-3-(4-bromobenzoyl)phenylacetic acid [1]: 0.60

Compound: Nc1c(CC(=O)O)cccc1C(=O)c1ccc(Br)cc1 [2-Amino-3-(4-bromobenzoyl)phenylacetic acid]
- concentration in the anterior aqueous humor at which the intraocular inflammation can be inhibited by at least not less than about 25% (therapeutically effective concentration) [2]: not less than 1.5 ng/mL
